For experiment [1], the target named is Dopamine receptors; D2 & D3 (Homo sapiens) (UniProt P14416+P35462). Briefly: Ratio of D3 receptor to the D2 receptor. In kind it is protein assay.
Another experiment has as its target D(2) dopamine receptor (Homo sapiens, UniProt P14416). The experiment is described as follows: Binding affinity, displacement of [125I]iodosulpiride from human Dopamine receptor D2 expressed in CHO cells. In kind it is cell-based.
The target of the next experiment is D(3) dopamine receptor (Homo sapiens, UniProt P35462). The experiment is described as follows: Binding affinity, displacement of [125I]iodosulpiride from human Dopamine receptor D3 expressed in CHO cells. In kind it is cell-based. A general note: Loss of bound radioactivity is the signal in a displacement assay; it reports binding, not function.

The record followed here is ChEMBL document CHEMBL1129831, “Novel 2,5-disubstituted-1H-pyrroles with high affinity for the dopamine D3 receptor: N-benzyl modifications” (Bioorg Med Chem Lett, 1997).

D(3) dopamine receptor, sequence (P35462 whole entry): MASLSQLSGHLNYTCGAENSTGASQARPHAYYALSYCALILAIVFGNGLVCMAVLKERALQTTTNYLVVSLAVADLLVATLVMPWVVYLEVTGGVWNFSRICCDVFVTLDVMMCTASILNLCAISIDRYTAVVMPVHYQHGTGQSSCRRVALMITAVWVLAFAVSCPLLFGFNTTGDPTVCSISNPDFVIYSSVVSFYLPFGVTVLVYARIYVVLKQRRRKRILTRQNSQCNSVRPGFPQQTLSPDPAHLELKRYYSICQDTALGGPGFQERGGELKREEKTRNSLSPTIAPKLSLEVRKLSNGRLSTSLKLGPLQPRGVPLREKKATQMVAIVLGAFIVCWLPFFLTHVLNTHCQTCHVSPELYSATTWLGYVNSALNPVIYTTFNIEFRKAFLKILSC
D(2) dopamine receptor, sequence (P14416 whole entry): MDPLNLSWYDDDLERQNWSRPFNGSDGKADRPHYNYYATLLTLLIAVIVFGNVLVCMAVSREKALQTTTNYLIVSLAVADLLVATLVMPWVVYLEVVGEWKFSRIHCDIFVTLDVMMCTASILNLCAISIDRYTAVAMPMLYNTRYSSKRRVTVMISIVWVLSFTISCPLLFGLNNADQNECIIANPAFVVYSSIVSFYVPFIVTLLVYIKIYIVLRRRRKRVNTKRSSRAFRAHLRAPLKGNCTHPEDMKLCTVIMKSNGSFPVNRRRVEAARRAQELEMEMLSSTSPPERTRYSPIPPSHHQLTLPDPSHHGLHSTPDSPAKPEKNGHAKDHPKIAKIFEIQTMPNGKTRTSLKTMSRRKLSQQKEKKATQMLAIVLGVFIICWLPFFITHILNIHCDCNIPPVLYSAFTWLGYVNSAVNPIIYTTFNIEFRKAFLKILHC

For `CCN(Cc1ccc(-c2cc(S(=O)(=O)CC)ccc2OC)[nH]1)Cc1ccccc1C`, the Ratio in experiment [1] came out at 2. The results for the Ki at D(2) dopamine receptor and on D(3) dopamine receptor were 6.31 nM and 3.16 nM, respectively.

With `CCN(Cc1ccc(-c2cc(S(=O)(=O)CC)ccc2OC)[nH]1)C1CCc2ccccc21` (stereo not drawn), the Ki on D(2) dopamine receptor and at D(3) dopamine receptor was 0.794 nM each time.

On to `CCN(Cc1ccc2c(c1)OCO2)Cc1ccc(-c2cc(S(=O)(=O)CC)ccc2OC)[nH]1`, for which the Ratio in experiment [1] was found to be 5. The Ki is 3.16 nM at D(2) dopamine receptor and 0.631 nM on D(3) dopamine receptor.

As to `CCN1[C@H](c2ccccc2)CC[C@H]1c1ccc(-c2cc(S(=O)(=O)CC)ccc2OC)[nH]1`, the Ratio in experiment [1] was 4. Also, the Ki on D(2) dopamine receptor is 39.8 nM; on D(3) dopamine receptor, 10 nM.

Turning to `CCN(Cc1ccc(-c2cc(S(=O)(=O)CC)ccc2OC)[nH]1)Cc1ccccc1Cl`, the Ratio in experiment [1] was 3. Besides, the Ki at D(2) dopamine receptor is 20 nM; on D(3) dopamine receptor it was 6.31 nM.

Regarding `CCN(Cc1ccccc1)Cc1ccc(-c2cc(S(=O)(=O)CC)ccc2OC)[nH]1`, the Ratio in experiment [1] was found to be 3.

For `CCS(=O)(=O)c1ccc(OC)c(-c2ccc(C3CCCN3Cc3ccccc3)[nH]2)c1` (stereo not drawn), the Ratio in experiment [1] was found to be 4. Further, the values for the Ki at D(2) dopamine receptor and on D(3) dopamine receptor were 39.8 nM and 10 nM, respectively.

As to `CCS(=O)(=O)c1ccc(OC)c(-c2ccc(CN3CCCCCC3c3cccc(OC)c3)[nH]2)c1` (stereo not drawn), in experiment [1], the Ratio came out at 15. Besides, the inhibition constant (Ki) at D(2) dopamine receptor was 794 nM; on D(3) dopamine receptor, 50.1 nM.

As for `CCN(Cc1cccc(C)c1)Cc1ccc(-c2cc(S(=O)(=O)CC)ccc2OC)[nH]1`, the Ratio in experiment [1] worked out at 5. Moreover, the Ki on D(2) dopamine receptor was 7.94 nM; on D(3) dopamine receptor it was 1.58 nM.

`CCS(=O)(=O)c1ccc(OC)c(-c2ccc(CN3CCCCCC3c3ccccc3)[nH]2)c1` (stereo not drawn): in experiment [1], the Ratio was 30.

Consider `CCN(Cc1ccc(Cl)cc1)Cc1ccc(-c2cc(S(=O)(=O)CC)ccc2OC)[nH]1`, for which the Ratio in experiment [1] stood at 3. The Ki on D(2) dopamine receptor is 1 nM; at D(3) dopamine receptor, 0.398 nM.

In the case of `CCN(Cc1ccc(C)cc1)Cc1ccc(-c2cc(S(=O)(=O)CC)ccc2OC)[nH]1`, the Ratio in experiment [1] is 2. Also, the Ki is 0.398 nM on D(2) dopamine receptor and 0.2 nM on D(3) dopamine receptor.

Take `CCS(=O)(=O)c1ccc(OC)c(-c2ccc(CN3CCCCCC3c3ccc(OC)cc3)[nH]2)c1` (stereo not drawn): in experiment [1], the Ratio is 15. Also, the Ki on D(2) dopamine receptor is 25.1 nM; at D(3) dopamine receptor, 1.58 nM.

For `CCN(Cc1ccc(-c2cc(S(=O)(=O)CC)ccc2OC)[nH]1)[C@H](C)c1ccccc1`, the Ratio in experiment [1] turned out to be 10. Also, the Ki on D(2) dopamine receptor is 7.94 nM; on D(3) dopamine receptor, 0.794 nM.

On to `CCN(Cc1ccc(-c2cc(S(=O)(=O)CC)ccc2OC)[nH]1)[C@@H](C)c1ccccc1`, for which the Ratio in experiment [1] was found to be 10. In addition, the Ki was 25.1 nM at D(2) dopamine receptor and 2.51 nM at D(3) dopamine receptor.

As to `CCN(Cc1ccc(-c2cc(S(=O)(=O)CC)ccc2OC)[nH]1)C1CCCc2ccccc21` (stereo not drawn), in experiment [1], the Ratio came out at 3. Also, the Ki at D(2) dopamine receptor is 12.6 nM; on D(3) dopamine receptor it was 5.01 nM.

In the case of `CCN(Cc1ccc(-c2cc(S(=O)(=O)CC)ccc2OC)[nH]1)Cc1ccccc1OC`, the Ki at D(2) dopamine receptor is 15.8 nM; on D(3) dopamine receptor, 10 nM.

As for `CCS(=O)(=O)c1ccc(OC)c(-c2ccc(CN3CCCCCC3c3ccccc3C)[nH]2)c1` (stereo not drawn), the Ratio in experiment [1] was 10. The Ki was 1260 nM at D(2) dopamine receptor and 100 nM on D(3) dopamine receptor.

Turning to `CCN1[C@@H](c2ccc(-c3cc(S(=O)(=O)CC)ccc3OC)[nH]2)CC[C@H]1c1ccccc1`, the Ki is 158 nM on D(2) dopamine receptor and 100 nM at D(3) dopamine receptor.

Regarding `CCN(Cc1cccc(OC)c1)Cc1ccc(-c2cc(S(=O)(=O)CC)ccc2OC)[nH]1`, the Ratio in experiment [1] amounted to 10. Moreover, the values for the Ki on D(2) dopamine receptor and at D(3) dopamine receptor were 79.4 nM and 7.94 nM, respectively.

On to `CCN(Cc1cccc(Cl)c1)Cc1ccc(-c2cc(S(=O)(=O)CC)ccc2OC)[nH]1`, for which the Ratio in experiment [1] was found to be 4. The Ki is 10 nM at D(2) dopamine receptor and 2.51 nM on D(3) dopamine receptor.

Consider `CCN(Cc1ccc(OC)cc1)Cc1ccc(-c2cc(S(=O)(=O)CC)ccc2OC)[nH]1`, for which the Ratio in experiment [1] was found to be 8. For the same compound, the values for the Ki at D(2) dopamine receptor and on D(3) dopamine receptor were 2 nM and 0.251 nM, respectively.

Take `CCN(Cc1ccc(OC)c(OC)c1)Cc1ccc(-c2cc(S(=O)(=O)CC)ccc2OC)[nH]1`: the Ratio in experiment [1] is 3. Also, the Ki at D(2) dopamine receptor was 31.6 nM; at D(3) dopamine receptor it was 12.6 nM.

Take `CCS(=O)(=O)c1ccc(OC)c(-c2ccc(CN3CCCCCC3c3ccc(C)cc3)[nH]2)c1` (stereo not drawn): in experiment [1], the Ratio is 30. Moreover, the Ki at D(2) dopamine receptor is 25.1 nM; on D(3) dopamine receptor, 0.794 nM.

Turning to `CCS(=O)(=O)c1ccc(OC)c(-c2ccc(CN3CCc4ccccc4C3)[nH]2)c1`, the Ratio in experiment [1] is 3. Also, the Ki at D(2) dopamine receptor is 100 nM; on D(3) dopamine receptor it was 31.6 nM.

As usually defined, the Ki is a dissociation constant, usually derived from enzyme kinetics or from competition with a known ligand. Lower therefore signals higher affinity.
